Test results: a compilation of properties of binary mixtures (doi:10.1016/j.molliq.2020.113538)

Assay: xn = mol fraction of the nth substance listed
Settings: 101 kPa

CC[n+]1ccn(CCOC)c1.O=S(=O)([O-])C(F)(F)F + CCO
viscosity [mPa·s]
Settings | x1 = 0.0996 | x1 = 0.1999 | x1 = 0.2996 | x1 = 0.3984 | x1 = 0.4991 | x1 = 0.603 | x1 = 0.699 | x1 = 0.797 | x1 = 0.899 | x1 = 1
288.15 K | 2.654 | 4.54 | – | 12.13 | 19.22 | 28.7 | 43.6 | 62.8 | 84.4 | 121
293.15 K | 2.374 | 4.01 | 6.66 | 10.37 | 16.43 | 23.77 | – | – | – | 92.5
298.15 K | 2.139 | – | 5.84 | 8.96 | 13.98 | 19.98 | 29.12 | – | 52.2 | 72.5
303.15 K | – | – | 5.16 | 7.82 | 11.97 | 17.28 | 24.38 | 32.04 | 42.9 | –
308.15 K | 1.757 | 2.916 | 4.59 | 6.88 | 10.34 | – | 20.67 | – | – | 47.3
313.15 K | 1.603 | 2.644 | 4.11 | 6.09 | 9.01 | 12.4 | 17.99 | – | 28.85 | 39
318.15 K | 1.467 | 2.409 | 3.72 | 5.43 | 7.9 | 11.16 | 15.6 | – | 23.82 | 32.59

CCO + CC[n+]1ccn(CCOC)c1.O=S(=O)([O-])C(F)(F)F
x2 = 0
Settings | viscosity [mPa·s]
288.15 K | 1.319
293.15 K | 1.195
298.15 K | 1.086
303.15 K | 0.989
308.15 K | 0.903
313.15 K | 0.825
318.15 K | 0.757
